Measurements published in ChEMBL document CHEMBL1134446, “Polyamine analogue antidiarrheals: a structure-activity study” (J Med Chem, 2001).
Values joined by “and” are separate entries in the source; they are usually repeats but may differ in a detail not shown here. Equal values may be shown once.

What was measured:
Canis familiaris [1] = test: Spermidine Distribution in kidney was determined after DESPM dosing of 1.87 mg/kg/day for 28 days in dog(cu dose-52.4) and sacrificed at 10 days PLD(cu dose-52.4 mg/kg); format: ADME, organism-based, Canis lupus familiaris; settings: in vivo, 240 h
Canis familiaris [2] = test: Spermidine Distribution in kidney was determined after DESPM dosing of 8.0 mg/kg/day for 4.5 days in dog(cu dose-52.4) and sacrificed at 75 days PLD(cu dose-36 mg/kg); format: ADME, organism-based, Canis lupus familiaris; settings: in vivo, 1800 h
Rattus norvegicus [3] = test: Weight loss of rat over the 6-h experimental period when a dose of 4.7 mg/kg (11.6 administered; format: functional
Canis familiaris [4] = test: Spermine Distribution in kidney was determined after DESPM dosing of 4 mg/kg/day for 13 days in dog(cu dose-52.4) and sacrificed at 10 days PLD(cu dose-52 mg/kg); format: ADME, organism-based, Canis lupus familiaris; settings: in vivo, 240 h
Canis familiaris [5] = test: MESPM/MEHSPH Distribution in kidney was determined after DESPM dosing of 4 mg/kg/day for 13 days in dog(cu dose-52.4) and sacrificed at 75 days PLD(cu dose-52 mg/kg); format: ADME, organism-based, Canis lupus familiaris; settings: in vivo, 1800 h
Rattus norvegicus [6] = test: Percent reduction was determined by using the ratio of mean of treated animal to that of control animal at a dose of 94 mg/kg; format: functional
Canis familiaris [7] = test: Spermidine Distribution in liver was determined after DESPM dosing of 6.0 mg/kg/day for 4.5 days in dog(cu dose-52.4) and sacrificed at 10 days PLD(cu dose-27 mg/kg); format: ADME, organism-based, Canis lupus familiaris; settings: in vivo, 240 h
Rattus norvegicus [8] = test: Percent reduction was determined by using the ratio of mean of treated animal to that of control animal at a dose of 4.7 mg/kg; format: functional
Canis familiaris [9] = test: Spermine Distribution in kidney was determined after DESPM dosing of 8.0 mg/kg/day for 4.5 days in dog(cu dose-52.4) and sacrificed at 75 days PLD(cu dose-36 mg/kg); format: ADME, organism-based, Canis lupus familiaris; settings: in vivo, 1800 h
Canis familiaris [10] = test: putrescine Distribution in kidney was determined after DESPM dosing of 1.87 mg/kg/day for 28 days in dog and sacrificed at 75 days PLD(cu dose-52.4 mg/kg); format: ADME, organism-based, Canis lupus familiaris; settings: in vivo, 1800 h
Canis familiaris [11] = test: Spermidine Distribution in liver was determined after DESPM dosing of 6.0 mg/kg/day for 4.5 days in dog(cu dose-52.4) and sacrificed at 75 days PLD(cu dose-27 mg/kg); format: ADME, organism-based, Canis lupus familiaris; settings: in vivo, 1800 h
Canis familiaris [12] = test: putrescine Distribution in kidney was determined after DESPM dosing of 6.0 mg/kg/day for 4.5 days in dog and sacrificed at 75 days PLD(cu dose-27 mg/kg); format: ADME, organism-based, Canis lupus familiaris; settings: in vivo, 1800 h
Rattus norvegicus [13] = test: Weight loss of rat over the 6-h experimental period when a dose of 9.4 mg/kg (23.3 administered; format: functional
Canis familiaris [14] = test: Spermidine Distribution in kidney was determined after DESPM dosing of 6.0 mg/kg/day for 4.5 days in dog(cu dose-52.4) and sacrificed at 75 days PLD(cu dose-27 mg/kg); format: ADME, organism-based, Canis lupus familiaris; settings: in vivo, 1800 h
Canis familiaris [15] = test: MESPM/MEHSPH Distribution in kidney was determined after DESPM dosing of 6.0 mg/kg/day for 4.5 days in dog(cu dose-52.4) and sacrificed at 75 days PLD(cu dose-27 mg/kg); format: ADME, organism-based, Canis lupus familiaris; settings: in vivo, 1800 h
Canis familiaris [16] = test: Spermidine Distribution in liver was determined after DESPM dosing of 8.0 mg/kg/day for 4.5 days in dog(cu dose-52.4) and sacrificed at 75 days PLD(cu dose-36 mg/kg); format: ADME, organism-based, Canis lupus familiaris; settings: in vivo, 1800 h
Canis familiaris [17] = test: MESPM/MEHSPH Distribution in kidney was determined after DESPM dosing of 8.0 mg/kg/day for 4.5 days in dog(cu dose-52.4) and sacrificed at 10 days PLD(cu dose-36 mg/kg); format: ADME, organism-based, Canis lupus familiaris; settings: in vivo, 240 h
Canis familiaris [18] = test: Spermine Distribution in liver was determined after DESPM dosing of 8.0 mg/kg/day for 4.5 days in dog(cu dose-52.4) and sacrificed at 10 days PLD(cu dose-36 mg/kg); format: ADME, organism-based, Canis lupus familiaris; settings: in vivo, 240 h
Rattus norvegicus [19] = test: Stool output of rat over the 6-h collection period when a dose of 4.7 mg/kg (11.6 administered; format: functional
Canis familiaris [20] = test: Spermine Distribution in liver was determined after DESPM dosing of 6.0 mg/kg/day for 4.5 days in dog(cu dose-52.4) and sacrificed at 10 days PLD(cu dose-27 mg/kg); format: ADME, organism-based, Canis lupus familiaris; settings: in vivo, 240 h
Canis familiaris [21] = test: putrescine Distribution in kidney was determined after DESPM dosing of 4.0 mg/kg/day for 13 days in dog and sacrificed at 75 days PLD(cu dose-52 mg/kg); format: ADME, organism-based, Canis lupus familiaris; settings: in vivo, 1800 h
Canis familiaris [22] = test: Distribution in liver was determined after DESPM dosing of 8.0 mg/kg/day for 4.5 days in dog(cu dose-52.4) and sacrificed at 75 days PLD(cu dose-36 mg/kg); format: ADME, organism-based, Canis lupus familiaris; settings: in vivo, 1800 h
Canis familiaris [23] = test: Distribution in kidney was determined after DEHSPM dosing of 2.0 mg/kg/day for 29 days in dog(cu dose-52.4) and sacrificed at 10 days PLD(cu dose-58 mg/kg); format: ADME, organism-based, Canis lupus familiaris; settings: in vivo, 240 h
Canis familiaris [24] = test: Distribution in kidney was determined after DESPM dosing of 8.0 mg/kg/day for 4.5 days in dog(cu dose-52.4) and sacrificed at 10 days PLD(cu dose-36 mg/kg); format: ADME, organism-based, Canis lupus familiaris; settings: in vivo, 240 h
Canis familiaris [25] = test: Spermine Distribution in kidney was determined after DEHSPM dosing of 2.0 mg/kg/day for 29 days in dog(cu dose-52.4) and sacrificed at 10 days PLD(cu dose-58 mg/kg); format: ADME, organism-based, Canis lupus familiaris; settings: in vivo, 240 h
Canis familiaris [26] = test: Distribution in liver was determined after DEHSPM dosing of 2.0 mg/kg/day for 29 days in dog(cu dose-52.4) and sacrificed at 10 days PLD(cu dose-58 mg/kg); format: ADME, organism-based, Canis lupus familiaris; settings: in vivo, 240 h
Canis familiaris [27] = test: Distribution in kidney was determined after DESPM dosing of 8.0 mg/kg/day for 4.5 days in dog(cu dose-52.4) and sacrificed at 75 days PLD(cu dose-36 mg/kg); format: ADME, organism-based, Canis lupus familiaris; settings: in vivo, 1800 h
Canis familiaris [28] = test: Distribution in kidney was determined after DESPM dosing of 4 mg/kg/day for 13 days in dog(cu dose-52.4) and sacrificed at 75 days PLD(cu dose-52 mg/kg); format: ADME, organism-based, Canis lupus familiaris; settings: in vivo, 1800 h
Canis familiaris [29] = test: Distribution in kidney was determined after DESPM dosing of 1.87 mg/kg/day for 28 days in dog(cu dose-52.4) and sacrificed at 75 days PLD(cu dose-52.4 mg/kg); format: ADME, organism-based, Canis lupus familiaris; settings: in vivo, 1800 h
Canis familiaris [30] = test: putrescine Distribution in liver was determined after DEHSPM dosing of 2.0 mg/kg/day for 29 days in dog(cu dose-52.4) and sacrificed at 10 days PLD([…]); format: ADME, organism-based, Canis lupus familiaris; settings: in vivo, 240 h
Canis familiaris [31] = test: Spermine Distribution in liver was determined after DEHSPM dosing of 2.0 mg/kg/day for 29 days in dog(cu dose-52.4) and sacrificed at 10 days PLD(cu dose-22 mg/kg); format: ADME, organism-based, Canis lupus familiaris; settings: in vivo, 240 h
Canis familiaris [32] = test: Distribution in liver was determined after DESPM dosing of 1.87 mg/kg/day for 28 days in dog(cu dose-52.4) and sacrificed at 10 days PLD(cu dose-52.4 mg/kg); format: ADME, organism-based, Canis lupus familiaris; settings: in vivo, 240 h
Canis familiaris [33] = test: Spermidine Distribution in liver was determined after DEHSPM dosing of 2.0 mg/kg/day […] in dog(cu dose-52.4) and sacrificed at 10 days PLD(cu dose-22 mg/kg); format: ADME, organism-based, Canis lupus familiaris; settings: in vivo, 240 h

CCNCCCNCCCCNCCCNCC [BIS(ETHYL)SPERMINE]
Wet weight of tissue (Canis familiaris [1]): 69 nM/g | Wet weight of tissue (Canis familiaris [2]): 80 nM/g | Weight loss (Rattus norvegicus [3]): <7.5 g | Wet weight of tissue (Canis familiaris [4]): 277 nM/g | Wet weight of tissue (Canis familiaris [5]): 0 nM/g | Reduction (Rattus norvegicus [6]): 100% | Wet weight of tissue (Canis familiaris [7]): 181 nM/g | Reduction (Rattus norvegicus [8]): 37% and 60% | Wet weight of tissue (Canis familiaris [9]): 624 nM/g | Wet weight of tissue (Canis familiaris [10]): 16 nM/g | Wet weight of tissue (Canis familiaris [11]): 244 nM/g | Wet weight of tissue (Canis familiaris [12]): 8 nM/g | Weight loss (Rattus norvegicus [13]): <5.3 g | Wet weight of tissue (Canis familiaris [14]): 90 nM/g | Wet weight of tissue (Canis familiaris [15]): 0 nM/g | Wet weight of tissue (Canis familiaris [16]): 221 nM/g | Wet weight of tissue (Canis familiaris [17]): 12 nM/g | Wet weight of tissue (Canis familiaris [18]): 937 nM/g | Stool output (Rattus norvegicus [19]): <3 g (350g of rat weight)-1 | Wet weight of tissue (Canis familiaris [20]): 848 nM/g | Wet weight of tissue (Canis familiaris [21]): 7 nM/g

CCNCCCCNCCCCNCCCCNCC [DIETHYLHOMOSPERMINE]
Wet weight of tissue (Canis familiaris [22]): 0 nM/g | Wet weight of tissue (Canis familiaris [23]): 98 nM/g | Wet weight of tissue (Canis familiaris [24]): 48 nM/g | Wet weight of tissue (Canis familiaris [25]): 275 nM/g | Wet weight of tissue (Canis familiaris [26]): 80 nM/g | Wet weight of tissue (Canis familiaris [27]): 0 nM/g | Wet weight of tissue (Canis familiaris [28]): 0 nM/g | Wet weight of tissue (Canis familiaris [29]): 0 nM/g | Wet weight of tissue (Canis familiaris [30]): 34 nM/g | Wet weight of tissue (Canis familiaris [31]): 386 nM/g | Wet weight of tissue (Canis familiaris [32]): 18 nM/g | Wet weight of tissue (Canis familiaris [33]): 68 nM/g
